Test results: patent US20070167502A1, “Association between a heterocyclic compound and an antioxidant agent” (priority 2004, published 2007)

System: Male C57 Black 6 ob/ob mice
Assay: Change in body weight of ob/ob mice after 7 days of treatment
Assay type: in vivo
Conditions: intraperitoneal route once a day for 7 days, weight after 7 days of treatment
Experimental: Male C57 Black 6 ob/ob mice from 8 to 12 weeks old were used. […] After being weighed, the various compounds under test were injected by the intraperitoneal route once a day for 7 days. The compounds were injected in a solution of DMSO 5%/Solutol 15%/qsp H2O heated at 65° C. to ensure good dissolution. In addition, the solution was pre-heated before injection. The mice were weighed every day and the weight obtained after 7 days of treatment was recorded.

COC1=C(OC)C(=O)C(C/C=C(\C)CC/C=C(\C)CC/C=C(\C)CC/C=C(\C)CC/C=C(\C)CC/C=C(\C)CC/C=C(\C)CC/C=C(\C)CC/C=C(\C)CCC=C(C)C)=C(C)C1=O [coenzyme Q10]
reduction in the weight gain: does not reduce the weight gain

CCOC(Cc1ccc(OCCn2c(=O)sc3cc(C(=NO)c4ccccc4)ccc32)cc1)C(=O)O (centres unmarked) [2-ethoxy-3-{4-[2-(6-[(hydroxyimino)(phenyl)methyl]-2-oxo-1,3-benzothiazol-3(2H)-yl)ethoxy]phenyl}propanoic acid]
reduction in the weight gain: 10%
